According to patent publication US9247759B2, “Identification of human T2R receptors that respond to bitter compounds that elicit the bitter taste in compositions, and the use thereof in assays to identify compounds that inhibit (block) bitter taste in compositions and use thereof” (SENOMYX, INC., priority 2007, dated 2016):
pIC50: −log10 of the molar value. Where two headings read alike, the source gives them in different places.

Key:
hT2R8 = hT2R8 (Homo sapiens (Human), UniProt Q9NYW2); assay: hT2R8 antagonist high-throughput FLIPR assay, stable cell line with G16g44, agonist andrographolide; format: cell-based
Sequence of hT2R8 (Q9NYW2 whole entry): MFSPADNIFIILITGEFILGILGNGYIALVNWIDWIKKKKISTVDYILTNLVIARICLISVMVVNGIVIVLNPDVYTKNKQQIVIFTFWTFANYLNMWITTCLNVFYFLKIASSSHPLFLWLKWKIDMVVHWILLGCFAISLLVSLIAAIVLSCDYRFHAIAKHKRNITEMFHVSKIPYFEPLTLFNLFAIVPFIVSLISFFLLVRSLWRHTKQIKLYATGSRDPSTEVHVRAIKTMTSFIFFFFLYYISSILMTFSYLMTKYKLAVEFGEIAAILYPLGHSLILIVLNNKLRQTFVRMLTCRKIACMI
Procedure, shortened: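 Antagonist screen: compounds co-applied with agonist andrographolide at 200 μM, a dose giving 70–80% of maximal hT2R8 activation. Fluorescence measured by FLIPR in a stable HEK293 line expressing both hT2R8 and the promiscuous G16g44 protein.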

hT2R3 = hT2R3 (Homo sapiens (Human), UniProt Q9NYW6); assay: hT2R panel inhibition, transient HEK293 G16g44, agonist Chloroquine pH6.5 50 μM; format: cell-based; conditions: receptor activated to EC80 with the corresponding agonist; for inhibition at 25 µM: HEK293, compound at 25 μM, read-out: screening result against bitter receptor 3
Sequence of hT2R3 (Q9NYW6 whole entry): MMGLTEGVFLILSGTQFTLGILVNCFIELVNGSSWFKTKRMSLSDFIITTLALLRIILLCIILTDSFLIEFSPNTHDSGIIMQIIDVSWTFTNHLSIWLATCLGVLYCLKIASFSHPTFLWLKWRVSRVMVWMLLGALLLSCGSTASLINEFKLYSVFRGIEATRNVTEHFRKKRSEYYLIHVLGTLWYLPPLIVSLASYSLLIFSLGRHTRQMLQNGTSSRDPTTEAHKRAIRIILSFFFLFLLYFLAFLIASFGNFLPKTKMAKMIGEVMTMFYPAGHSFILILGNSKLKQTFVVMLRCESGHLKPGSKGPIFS
Procedure, shortened: (§1)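 Panel: 22 human T2Rs, individually transient in stable G16g44 cells. Stim: EC80 agonist. Output: % reduction of activity by test cpd.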

hT2R5 = hT2R5 (Homo sapiens (Human), UniProt Q9NYW4); assay: hT2R panel inhibition, transient HEK293 G16g44, agonist Picoline 10 mM; format: cell-based; conditions: HEK293, compound at 25 μM; receptor activated to EC80 with the corresponding agonist; read-out: screening result against bitter receptor 5
Sequence of hT2R5 (Q9NYW4 whole entry): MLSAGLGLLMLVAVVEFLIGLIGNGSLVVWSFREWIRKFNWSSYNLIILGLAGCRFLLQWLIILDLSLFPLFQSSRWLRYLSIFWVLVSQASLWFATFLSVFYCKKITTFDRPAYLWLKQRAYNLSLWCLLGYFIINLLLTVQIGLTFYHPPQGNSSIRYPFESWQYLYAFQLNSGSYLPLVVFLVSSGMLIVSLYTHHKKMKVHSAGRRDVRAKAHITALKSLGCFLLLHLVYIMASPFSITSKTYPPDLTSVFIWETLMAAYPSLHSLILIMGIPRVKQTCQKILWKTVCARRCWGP
Procedure, shortened: as §1

hT2R7 = hT2R7 (Homo sapiens (Human), UniProt Q9NYW3); assay: hT2R panel inhibition, transient HEK293 G16g44, agonist Chloroquine pH6.5 10 mM; format: cell-based; conditions: HEK293, compound at 25 μM; receptor activated to EC80 with the corresponding agonist; read-out: screening result against bitter receptor 7
Sequence of hT2R7 (Q9NYW3 whole entry): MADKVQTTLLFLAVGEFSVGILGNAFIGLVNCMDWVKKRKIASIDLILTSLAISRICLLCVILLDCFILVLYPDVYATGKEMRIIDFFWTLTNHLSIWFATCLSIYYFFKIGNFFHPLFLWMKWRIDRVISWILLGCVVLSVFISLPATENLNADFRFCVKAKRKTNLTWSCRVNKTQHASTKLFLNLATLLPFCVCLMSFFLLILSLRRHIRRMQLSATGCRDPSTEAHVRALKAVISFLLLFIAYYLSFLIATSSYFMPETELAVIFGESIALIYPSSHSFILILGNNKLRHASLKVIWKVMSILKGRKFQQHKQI
Procedure, shortened: as §1

hT2R9 = hT2R9 (Homo sapiens (Human), UniProt Q9NYW1); assay: hT2R panel inhibition, transient HEK293 G16g44, agonist Ofloxacin 1 mM; format: cell-based; conditions: HEK293, compound at 25 μM; receptor activated to EC80 with the corresponding agonist; read-out: screening result against bitter receptor 9
Sequence of hT2R9 (Q9NYW1 whole entry): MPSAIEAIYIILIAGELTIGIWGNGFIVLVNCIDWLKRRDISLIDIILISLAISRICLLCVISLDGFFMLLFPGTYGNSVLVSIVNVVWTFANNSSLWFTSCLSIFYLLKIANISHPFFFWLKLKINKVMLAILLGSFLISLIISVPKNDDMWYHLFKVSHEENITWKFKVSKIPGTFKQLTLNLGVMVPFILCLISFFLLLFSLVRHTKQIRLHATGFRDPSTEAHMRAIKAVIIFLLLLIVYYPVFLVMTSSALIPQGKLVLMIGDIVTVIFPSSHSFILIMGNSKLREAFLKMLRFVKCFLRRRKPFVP
Procedure, shortened: as §1

hT2R10 = hT2R10 (Homo sapiens (Human), UniProt Q9NYW0); assay: hT2R panel inhibition, transient HEK293 G16g44, agonist Strychnine 50 μM; format: cell-based; conditions: receptor activated to EC80 with the corresponding agonist; for inhibition at 25 µM: HEK293, read-out: screening result against bitter receptor 10, compound at 25 μM
Sequence of hT2R10 (Q9NYW0 whole entry): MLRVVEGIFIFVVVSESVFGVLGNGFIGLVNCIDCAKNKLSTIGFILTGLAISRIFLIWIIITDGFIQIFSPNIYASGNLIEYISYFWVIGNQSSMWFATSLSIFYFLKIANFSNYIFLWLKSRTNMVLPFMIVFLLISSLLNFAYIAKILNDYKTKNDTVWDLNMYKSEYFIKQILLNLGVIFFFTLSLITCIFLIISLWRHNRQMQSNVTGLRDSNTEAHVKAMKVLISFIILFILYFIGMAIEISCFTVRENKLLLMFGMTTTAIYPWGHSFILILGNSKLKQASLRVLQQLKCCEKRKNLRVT

hT2R13 = hT2R13 (Homo sapiens (Human), UniProt Q9NYV9); assay: hT2R panel inhibition, transient HEK293 G16g44, agonist Oxyphenonium 1 mM; format: cell-based; conditions: HEK293, compound at 25 μM; receptor activated to EC80 with the corresponding agonist; read-out: screening result against bitter receptor 13
Sequence of hT2R13 (Q9NYV9 whole entry): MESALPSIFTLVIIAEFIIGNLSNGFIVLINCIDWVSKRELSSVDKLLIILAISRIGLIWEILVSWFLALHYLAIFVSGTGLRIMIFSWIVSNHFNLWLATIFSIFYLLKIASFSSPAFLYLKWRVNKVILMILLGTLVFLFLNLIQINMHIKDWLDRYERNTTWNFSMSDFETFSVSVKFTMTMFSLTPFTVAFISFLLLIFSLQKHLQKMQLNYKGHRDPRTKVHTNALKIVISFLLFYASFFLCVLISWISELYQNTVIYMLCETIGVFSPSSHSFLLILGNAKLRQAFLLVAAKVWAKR
Procedure, shortened: as §1

hT2R14 [1] = target: T1, hT2R14 (Homo sapiens (Human), UniProt Q9NYV8); assay: hT2R panel inhibition, transient HEK293 G16g44, agonist Aristolochic Acid 2 μM; format: cell-based; conditions: receptor activated to EC80 with the corresponding agonist; for inhibition at 25 µM: HEK293, compound at 25 μM, read-out: screening result against bitter receptor 14
T1 sequence (Q9NYV8 whole entry): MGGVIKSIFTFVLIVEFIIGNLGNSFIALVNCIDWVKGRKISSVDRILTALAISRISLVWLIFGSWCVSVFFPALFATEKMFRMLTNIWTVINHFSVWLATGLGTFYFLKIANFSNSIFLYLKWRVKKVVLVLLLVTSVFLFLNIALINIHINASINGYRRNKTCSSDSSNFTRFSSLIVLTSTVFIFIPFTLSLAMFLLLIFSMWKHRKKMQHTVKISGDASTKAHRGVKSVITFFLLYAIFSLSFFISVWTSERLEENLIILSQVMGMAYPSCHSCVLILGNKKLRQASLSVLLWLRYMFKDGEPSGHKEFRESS
Procedure, shortened: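 Agonist challenge was at EC80, with 0.5 mM andrographolide on hT2R8 and 2 μM aristolochic acid on hT2R14. Inhibition was measured in functional assays in HEK293 cells that stably carry the promiscuous G protein G16g44 and were transiently transfected with the individual receptor.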

hT2R16 = hT2R16 (Homo sapiens (Human), UniProt Q9NYV7); assay: hT2R panel inhibition, transient HEK293 G16g44, agonist Salicin 1 mM; format: cell-based; conditions: HEK293, compound at 25 μM; receptor activated to EC80 with the corresponding agonist; read-out: screening result against bitter receptor 16
Sequence of hT2R16 (Q9NYV7 whole entry): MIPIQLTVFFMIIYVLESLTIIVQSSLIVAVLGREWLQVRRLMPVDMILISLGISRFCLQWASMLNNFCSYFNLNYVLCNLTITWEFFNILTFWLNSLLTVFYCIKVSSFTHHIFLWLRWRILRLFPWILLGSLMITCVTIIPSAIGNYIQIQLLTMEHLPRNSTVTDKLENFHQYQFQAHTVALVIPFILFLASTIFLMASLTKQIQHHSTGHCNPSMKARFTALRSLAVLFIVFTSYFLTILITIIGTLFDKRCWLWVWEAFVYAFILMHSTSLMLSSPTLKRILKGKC
Procedure, shortened: as §1

hT2R44 = assay: hT2R panel inhibition, transient HEK293 G16g44, agonist Denatonium 0.5 μM; format: cell-based, human; conditions: compound at 25 μM; receptor activated to EC80 with the corresponding agonist
Procedure, shortened: as §1

hT2R51 = hT2R51 (Homo sapiens (Human), UniProt P59533); assay: hT2R panel inhibition, transient HEK293 G16g44, agonist Prop 2.5 μM; format: cell-based; conditions: receptor activated to EC80 with the corresponding agonist; for inhibition at 25 µM: HEK293, compound at 25 μM, read-out: screening result against bitter receptor 51
Sequence of hT2R51 (P59533 whole entry): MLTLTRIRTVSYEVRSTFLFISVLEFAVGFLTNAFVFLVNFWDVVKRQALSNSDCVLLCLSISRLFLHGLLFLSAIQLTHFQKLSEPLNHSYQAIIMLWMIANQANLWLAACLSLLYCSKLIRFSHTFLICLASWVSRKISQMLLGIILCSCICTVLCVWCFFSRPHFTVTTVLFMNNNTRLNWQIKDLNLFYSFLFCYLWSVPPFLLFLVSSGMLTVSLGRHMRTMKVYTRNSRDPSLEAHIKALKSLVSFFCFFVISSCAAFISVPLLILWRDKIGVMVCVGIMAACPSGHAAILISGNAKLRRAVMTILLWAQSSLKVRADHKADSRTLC
Procedure, shortened: as §1

hT2R54 = assay: hT2R panel inhibition, transient HEK293 G16g44, agonist Ranitidine 5 mM; format: cell-based, human; conditions: compound at 25 μM; receptor activated to EC80 with the corresponding agonist
Procedure, shortened: as §1

hT2R55 = assay: hT2R panel inhibition, transient HEK293 G16g44, agonist Cinchonine 150 μM; format: cell-based, human; conditions: compound at 25 μM; receptor activated to EC80 with the corresponding agonist
Procedure, shortened: as §1

hT2R61 = hT2R61 (Homo sapiens (Human), UniProt P59537); assay: hT2R panel inhibition, transient HEK293 G16g44, agonist Aristolochic Acid 25 nM; format: cell-based; conditions: receptor activated to EC80 with the corresponding agonist; for inhibition at 25 µM: HEK293, compound at 25 μM, read-out: screening result against bitter receptor 61
Sequence of hT2R61 (P59537 whole entry): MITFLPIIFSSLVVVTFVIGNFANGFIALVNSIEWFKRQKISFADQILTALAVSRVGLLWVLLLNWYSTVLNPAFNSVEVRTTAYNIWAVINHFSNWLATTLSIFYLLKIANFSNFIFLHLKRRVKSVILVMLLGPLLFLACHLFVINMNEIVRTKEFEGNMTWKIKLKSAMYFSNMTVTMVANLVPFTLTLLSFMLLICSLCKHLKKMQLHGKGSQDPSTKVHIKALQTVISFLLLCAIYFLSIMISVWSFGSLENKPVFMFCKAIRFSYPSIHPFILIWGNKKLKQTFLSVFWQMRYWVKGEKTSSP
Procedure, shortened: as §1

hT2R63 = assay: hT2R panel inhibition, transient HEK293 G16g44, agonist Caffeine 1 mM or Andrographolide 100 μM; format: cell-based, human; conditions: compound at 25 μM; receptor activated to EC80 with the corresponding agonist
Procedure, shortened: as §1

hT2R64 = hT2R64 (Homo sapiens (Human), UniProt P59538); assay: hT2R panel inhibition, transient HEK293 G16g44, agonist Aristolochic Acid 1 μM; format: cell-based; conditions: receptor activated to EC80 with the corresponding agonist; for inhibition at 25 µM: HEK293, compound at 25 μM, read-out: screening result against bitter receptor 64
Sequence of hT2R64 (P59538 whole entry): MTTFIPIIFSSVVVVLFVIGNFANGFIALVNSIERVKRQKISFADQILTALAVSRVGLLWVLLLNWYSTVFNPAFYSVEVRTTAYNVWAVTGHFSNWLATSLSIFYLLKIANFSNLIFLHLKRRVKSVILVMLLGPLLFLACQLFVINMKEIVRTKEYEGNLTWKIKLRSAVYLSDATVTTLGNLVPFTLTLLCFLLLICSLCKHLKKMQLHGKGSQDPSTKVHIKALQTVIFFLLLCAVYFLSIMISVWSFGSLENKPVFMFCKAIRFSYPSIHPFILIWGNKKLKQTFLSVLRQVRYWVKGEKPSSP
Procedure, shortened: as §1

hT2R65 = assay: hT2R panel inhibition, transient HEK293 G16g44, agonist Oleuropein 1 mM; format: cell-based, human; conditions: compound at 25 μM; receptor activated to EC80 with the corresponding agonist
Procedure, shortened: as §1

hT2R67 = assay: hT2R panel inhibition, transient HEK293 G16g44, agonist Andrographolide 5 μM; format: cell-based, human; conditions: compound at 25 μM; receptor activated to EC80 with the corresponding agonist
Procedure, shortened: as §1

hT2R71 = hT2R71 (Homo sapiens (Human), UniProt P59536); assay: hT2R panel inhibition, transient HEK293 G16g44, agonist Picric Acid 10 μM; format: cell-based; conditions: receptor activated to EC80 with the corresponding agonist; for inhibition at 25 µM: HEK293, compound at 25 μM, read-out: screening result against bitter receptor 71
Sequence of hT2R71 (P59536 whole entry): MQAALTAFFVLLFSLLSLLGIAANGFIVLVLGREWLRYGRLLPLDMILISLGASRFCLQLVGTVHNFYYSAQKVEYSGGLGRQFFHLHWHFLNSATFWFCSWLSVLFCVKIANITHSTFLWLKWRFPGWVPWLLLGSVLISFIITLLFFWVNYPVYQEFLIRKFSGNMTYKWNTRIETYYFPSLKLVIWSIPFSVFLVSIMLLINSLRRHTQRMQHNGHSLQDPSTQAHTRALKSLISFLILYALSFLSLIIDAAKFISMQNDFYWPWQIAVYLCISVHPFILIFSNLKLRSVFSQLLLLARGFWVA
Procedure, shortened: as §1

hT2R75 = hT2R75 (Homo sapiens (Human), UniProt P59540); assay: hT2R panel inhibition, transient HEK293 G16g44, agonist Strychnine 1 μM; format: cell-based; conditions: receptor activated to EC80 with the corresponding agonist; for inhibition at 25 µM: HEK293, read-out: screening result against bitter receptor 75, compound at 25 μM
Sequence of hT2R75 (P59540 whole entry): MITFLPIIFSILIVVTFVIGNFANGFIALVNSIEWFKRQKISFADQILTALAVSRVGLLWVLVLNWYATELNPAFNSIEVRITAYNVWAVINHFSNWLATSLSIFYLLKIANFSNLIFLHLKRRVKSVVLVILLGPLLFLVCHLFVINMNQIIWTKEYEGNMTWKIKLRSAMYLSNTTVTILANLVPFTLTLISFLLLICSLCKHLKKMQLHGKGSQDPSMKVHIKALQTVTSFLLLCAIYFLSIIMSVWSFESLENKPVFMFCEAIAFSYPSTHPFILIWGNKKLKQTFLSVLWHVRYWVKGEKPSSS

hT2R4 = hT2R4 (Homo sapiens (Human), UniProt Q9NYW5); assay: hT2R panel inhibition, transient HEK293 G16g44, agonist Chloroquine pH6.5 5 mM; format: cell-based; conditions: HEK293, compound at 25 μM; receptor activated to EC80 with the corresponding agonist; class symbols; read-out: screening result against bitter receptor 4
Sequence of hT2R4 (Q9NYW5 whole entry): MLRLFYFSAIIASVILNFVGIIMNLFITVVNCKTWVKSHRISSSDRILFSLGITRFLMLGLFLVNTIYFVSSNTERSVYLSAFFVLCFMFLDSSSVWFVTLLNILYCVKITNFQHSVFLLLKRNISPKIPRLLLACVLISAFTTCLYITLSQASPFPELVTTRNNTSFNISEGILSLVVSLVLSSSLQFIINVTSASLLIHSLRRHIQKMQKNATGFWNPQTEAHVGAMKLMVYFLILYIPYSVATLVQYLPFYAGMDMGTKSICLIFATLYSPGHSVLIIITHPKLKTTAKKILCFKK
Procedure, shortened: as §1

hT2R14 [2] = target: T1, hT2R14; assay: hT2R14 antagonist high-throughput FLIPR assay, stable cell line with G16g44, agonist aristolochic acid; format: cell-based; conditions: read-out: IC50 on hT2R14 bitter receptor
Procedure, shortened: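 Compounds were co-applied with 3 μM aristolochic acid, a dose set to reach 70-80% of maximal hT2R14 activation. Read-out was FLIPR fluorescence in a stable HEK293 line co-expressing hT2R14 and G16g44.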

Structure (SMILES)	inhibition at 25 µM (hT2R3)	inhibition at 25 µM (hT2R5)	inhibition at 25 µM (hT2R7)	inhibition at 25 µM (hT2R9)	inhibition at 25 µM (hT2R10)	inhibition at 25 µM (hT2R13)	inhibition at 25 µM (hT2R14 [1])	inhibition at 25 µM (hT2R16)	screening result against bitter receptor 44 (hT2R44)	inhibition at 25 µM (hT2R51)	screening result against bitter receptor 54 (hT2R54)	screening result against bitter receptor 55 (hT2R55)	inhibition at 25 µM (hT2R61)	screening result against bitter receptor 63 (hT2R63)	inhibition at 25 µM (hT2R64)	screening result against bitter receptor 65 (hT2R65)	screening result against bitter receptor 67 (hT2R67)	inhibition at 25 µM (hT2R71)	inhibition at 25 µM (hT2R75)	further results
Cc1noc(C)c1Cn1cc(N2C(=O)CN(CCc3cccc(F)c3)C2=O)cn1 [Example 10-77, 3-(1-((3,5-dimethylisoxazol-4-yl)methyl)-1H-pyrazol-4-yl)-1-(3-fluorophenethyl)imidazolidine-2,4-dione]	–	–	–	–	–	–	–	–	–	–	–	–	–	–	–	–	–	–	–	pIC50 (hT2R8; read-out: IC50 on hT2R8 bitter receptor): 7.22; pIC50 (hT2R8; table after Example 10-97, read-out: hT2R8 IC50): 7.19; melting point: 110 to 111 °C
COc1ccc(CN(Cc2ccccc2)S(=O)(=O)c2ccc(C(=O)O)cc2)cc1C [Example 5-89, 4-(N-benzyl-N-(4-methoxy-3-methylbenzyl)sulfamoyl)benzoic acid]	40 to 60%	20 to 40%	40 to 60%	20 to 40%	60 to 80%	20 to 40%	> 80%	20 to 40%	+++ (60% to 80% inhibition = +++)	> 80%	+ (20% to 40% inhibition = +)	++++ (80% or greater inhibition = ++++)	> 80%	++++ (80% or greater inhibition = ++++)	60 to 80%	++++ (80% or greater inhibition = ++++)	+ (20% to 40% inhibition = +)	60 to 80%	20 to 40%	–
COc1ccc(CN(Cc2cccc(F)c2F)S(=O)(=O)c2ccc(C(=O)O)cc2)cc1 [Example 5-33, 4-(N-(2,3-difluorobenzyl)-N-(4-methoxybenzyl)sulfamoyl)benzoic acid]	40 to 60%	40 to 60%	20 to 40%	20 to 40%	60 to 80%	20 to 40%	> 80%	40 to 60%	+++ (60% to 80% inhibition = +++)	40 to 60%	+++ (60% to 80% inhibition = +++)	++++ (80% or greater inhibition = ++++)	> 80%	+++ (60% to 80% inhibition = +++)	60 to 80%	+++ (60% to 80% inhibition = +++)	++ (40% to 60% inhibition = ++)	60 to 80%	–	inhibition at 25 µM (hT2R4): 40 to 60%
COc1ccc(CN(Cc2ccc(F)cc2)S(=O)(=O)c2ccc(C(=O)O)cc2)cc1 [Example 5-10, 4-(N-(4-fluorobenzyl)-N-(4-methoxybenzyl)sulfamoyl)benzoic acid]	–	–	40 to 60%	40 to 60%	–	40 to 60%	–	> 80%	++ (40% to 60% inhibition = ++)	–	++++ (80% or greater inhibition = ++++)	+++ (60% to 80% inhibition = +++)	–	++++ (80% or greater inhibition = ++++)	–	++++ (80% or greater inhibition = ++++)	+++ (60% to 80% inhibition = +++)	–	–	pIC50 (hT2R14 [2]): 5.71; screening result against bitter receptor 3 (hT2R3; compound at 25 μM): +++ (60% to 80% inhibition = +++); screening result against bitter receptor 10 (hT2R10; compound at 25 μM): ++++ (80% or greater inhibition = ++++); screening result against bitter receptor 14 (hT2R14 [1]; compound at 25 μM): ++++ (80% or greater inhibition = ++++); screening result against bitter receptor 51 (hT2R51; compound at 25 μM): ++++ (80% or greater inhibition = ++++); screening result against bitter receptor 61 (hT2R61; compound at 25 μM): ++++ (80% or greater inhibition = ++++); screening result against bitter receptor 64 (hT2R64; compound at 25 μM): +++ (60% to 80% inhibition = +++); screening result against bitter receptor 71 (hT2R71; compound at 25 μM): +++ (60% to 80% inhibition = +++); screening result against bitter receptor 75 (hT2R75; compound at 25 μM): + (20% to 40% inhibition = +)
COc1ccc(CN(Cc2cccc(F)c2)S(=O)(=O)c2ccc(C(=O)O)cc2)cc1 [Example 5-12, 4-(N-(3-fluorobenzyl)-N-(4-methoxybenzyl)sulfamoyl)benzoic acid]	60 to 80%	40 to 60%	40 to 60%	40 to 60%	> 80%	20 to 40%	> 80%	60 to 80%	+++ (60% to 80% inhibition = +++)	> 80%	++++ (80% or greater inhibition = ++++)	++++ (80% or greater inhibition = ++++)	> 80%	++++ (80% or greater inhibition = ++++)	60 to 80%	++++ (80% or greater inhibition = ++++)	+++ (60% to 80% inhibition = +++)	> 80%	20 to 40%	–
